Assay results reported in US6426229B1, “Chelating agent and detergent comprising the same” (Mitsubishi Rayon Co., Ltd., priority 1995, dated 2002).

experiment: Compression strength (hardening property) of powder stored under load for 2 months; type: physicochemical; conditions: Load 100 (table head [Kg]; text 100 g/cm^2); 20-30° C., relative humidity 40-70%
Experimental: Method for the Measurement of Compression Strength
(1) A test sample (500 g) is put in a poly-ethylene bag of 20 cm×20 cm in a room at a temperature of 20-30° C. and a relative humidity of 40-70%. The powder is levelled to an area of 20 cm×20 cm and air is forced out of the bag, and, then, the bag is sealed. This bag is further put in a kraft bag and this kraft bag is sealed.
(2) The kraft bag of (1) is placed horizontally on a flat plate and a plate is put thereon. […]
(3) With keeping the temperature of 20-30° C. and the relative humidity of 40-70%, the test sample is taken out after lapse of 2 months from the starting of application of load. Several test pieces (4 cm long×4 cm broad×2 cm high) are cut out from the sample.

Row | Compound | Compression strength after stored for 2 months [Kg/cm^2]
1 | O=C([O-])CN[C@@H](CC(=O)[O-])C(=O)[O-].[Na+].[Na+].[Na+] [compound 1, trisodium salt of (S)-aspartic acid-N-monoacetic acid, reference compound] | 2.6
2 | O=C([O-])CCN[C@@H](CC(=O)[O-])C(=O)[O-].[Na+].[Na+].[Na+] [compound 2, trisodium salt of (S)-aspartic acid-N-monopropionic acid, reference compound] | 3.0
3 | O=C([O-])C[C@@H](C(=O)[O-])N(CC(=O)[O-])CC(=O)[O-].[Na+].[Na+].[Na+].[Na+] [compound 3, tetrasodium salt of (S)-aspartic acid-N,N-diacetic acid, reference compound] | 3.2
4 | C[C@@H](C(=O)[O-])N(CC(=O)[O-])CC(=O)[O-].[Na+].[Na+].[Na+] [compound 4, trisodium salt of (S)-α-alanine-N,N-diacetic acid, reference compound] | 2.8
5 | O=C(O)CN[C@@H](CC(=O)O)C(=O)O [compound 5, (S)-aspartic acid-N-monoacetic acid, reference compound] | 2.8
6 | O=C(O)CCN[C@@H](CC(=O)O)C(=O)O [compound 6, (S)-aspartic acid-N-monopropionic acid, reference compound] | 2.5
7 | O=C(O)C[C@@H](C(=O)O)N(CC(=O)O)CC(=O)O [compound 7, (S)-aspartic acid-N,N-diacetic acid, reference compound] | 2.3
8 | C[C@@H](C(=O)O)N(CC(=O)O)CC(=O)O [compound 8, (S)-α-alanine-N,N-diacetic acid, reference compound] | 2.6
9 | O=C([O-])CN(CCS(=O)(=O)[O-])CC(=O)[O-].[Na+].[Na+].[Na+] [compound 9, trisodium salt of taurine-N,N-diacetic acid, reference compound] | 2.5
10 | CN(CC(=O)[O-])CC(=O)[O-].[Na+].[Na+] [compound 10, disodium N-methyliminodiacetate, reference compound] | 2.6
11 | O=C([O-])CN(CC(=O)[O-])c1ccccc1C(=O)[O-].[Na+].[Na+].[Na+] [compound 11, trisodium salt of anthranilic acid-N,N-diacetic acid, reference compound] | 2.5
12 | O=C(O)CN(CCS(=O)(=O)O)CC(=O)O [compound 12, taurine-N,N-diacetic acid, reference compound] | 3.3
13 | CN(CC(=O)O)CC(=O)O [compound 13, N-methyliminodiacetic acid, reference compound] | 2.7
14 | O=C(O)CN(CC(=O)O)c1ccccc1C(=O)O [compound 14, anthranilic acid-N,N-diacetic acid, reference compound] | 2.5
15 | O=C([O-])CC(NCCNC(CC(=O)[O-])C(=O)[O-])C(=O)[O-].[Na+].[Na+].[Na+].[Na+] (stereo not shown) [compound 16, tetrasodium ethylenediaminedisuccinate, reference compound] | 2.8
16 | O=C([O-])C[C@H](NCCN[C@@H](CC(=O)[O-])C(=O)[O-])C(=O)[O-].[Na+].[Na+].[Na+].[Na+] [compound 17, tetrasodium (S,S)-ethylenediaminedisuccinate, reference compound] | 2.9
17 | O=C([O-])CC(NCCCNC(CC(=O)[O-])C(=O)[O-])C(=O)[O-].[Na+].[Na+].[Na+].[Na+] (stereo not shown) [compound 18, tetrasodium 1,3-propanediaminedisuccinate, reference compound] | 3.0
18 | O=C([O-])C[C@H](NCCCN[C@@H](CC(=O)[O-])C(=O)[O-])C(=O)[O-].[Na+].[Na+].[Na+].[Na+] [compound 19, tetrasodium (S,S)-1,3-propanediaminedisuccinate, reference compound] | 2.9
19 | O=C([O-])C[C@H](NCC(O)CN[C@@H](CC(=O)[O-])C(=O)[O-])C(=O)[O-].[Na+].[Na+].[Na+].[Na+] [compound 20, tetrasodium (S,S)-2-hydroxy-1,3-propanediaminedisuccinate, reference compound] | 2.7
20 | O=C(O)C[C@H](NCCN[C@@H](CC(=O)O)C(=O)O)C(=O)O [compound 21, ethylenediaminedisuccinic acid, reference compound] | 2.8
21 | O=C(O)C[C@H](NCCN[C@@H](CC(=O)O)C(=O)O)C(=O)O [compound 22, (S,S)-ethylenediaminedisuccinic acid, reference compound] | 2.5
22 | O=C(O)CC(NCCCNC(CC(=O)O)C(=O)O)C(=O)O (stereo not shown) [compound 23, 1,3-propanediaminedisuccinic acid, reference compound] | 2.7
23 | O=C(O)C[C@H](NCCCN[C@@H](CC(=O)O)C(=O)O)C(=O)O [compound 24, (S,S)-1,3-propanediaminedisuccinic acid, reference compound] | 2.8
24 | O=C(O)C[C@H](NCC(O)CN[C@@H](CC(=O)O)C(=O)O)C(=O)O [compound 25, (S,S)-2-hydroxy-1,3-propanediaminedisuccinic acid, reference compound] | 2.5
25 | O=C([O-])C[C@H](NCCN[C@@H](CC(=O)[O-])C(=O)[O-])C(=O)[O-].[Fe+3].[NH4+] [compound 26, iron ammonium (S,S)-ethylenediaminedisuccinate, reference compound] | 2.7
26 | O=C([O-])C[C@H](NCCN[C@@H](CC(=O)[O-])C(=O)[O-])C(=O)[O-].[Cu+2].[Na+].[Na+] [compound 27, copper disodium (S,S)-ethylenediaminedisuccinate, reference compound] | 2.8
27 | O=C([O-])C[C@H](NCCN[C@@H](CC(=O)[O-])C(=O)[O-])C(=O)[O-].[Na+].[Na+].[Ni+2] [compound 28, nickel disodium (S,S)-ethylenediaminedisuccinate, reference compound] | 2.5
28 | iron salt of anthranilic acid-N,N-diacetic acid [compound 15, reference compound] | 2.5

same assay, conditions: Load 200 (table head [Kg]; text 200 g/cm^2); 20-30° C., relative humidity 40-70%

Row | Compound | Compression strength after stored for 2 months [Kg/cm^2]
29 | O=C([O-])C[C@H](NCCN[C@@H](CC(=O)[O-])C(=O)[O-])C(=O)[O-].[Cu+2].[Na+].[Na+] [Example 80, copper disodium (S,S)-ethylenediaminedisuccinate] | 1.0
30 | O=C([O-])C[C@H](NCCN[C@@H](CC(=O)[O-])C(=O)[O-])C(=O)[O-].[Na+].[Na+].[Ni+2] [Example 81, nickel disodium (S,S)-ethylenediaminedisuccinate] | 1.2
31 | O=C([O-])C[C@H](NCCCN[C@@H](CC(=O)[O-])C(=O)[O-])C(=O)[O-].[Fe+3].[NH4+] [Example 82, iron ammonium (S,S)-1,3-propanediaminedisuccinate] | 1.1
32 | O=C([O-])C[C@H](NCCCN[C@@H](CC(=O)[O-])C(=O)[O-])C(=O)[O-].[Cu+2].[Na+].[Na+] [Example 83, copper disodium (S,S)-1,3-propanediaminedisuccinate] | 1.3
33 | O=C([O-])CC(NCCCNC(CC(=O)[O-])C(=O)[O-])C(=O)[O-].[Na+].[Na+].[Ni+2] [Example 84, nickel disodium (S,S)-1,3-propanediaminedisuccinate] | 1.0

same assay, conditions: Load 300 (table head [Kg]; text 300 g/cm^2); 20-30° C., relative humidity 40-70%

Row | Compound | Compression strength after stored for 2 months [Kg/cm^2]
34 | iron salt of anthranilic acid-N,N-diacetic acid [Example 45] | 0.8

experiment: Storage of aqueous solution or slurry for 60 days: HPLC analysis of components and appearance; type: physicochemical; conditions: keeping temperature 75° C.

Row | Compound | Appearance after kept for 60 days | Content of the compound of the formula [I] in aqueous solution after kept for 60 days [wt. %]
35 | O=C([O-])CN[C@@H](CC(=O)[O-])C(=O)[O-].[Na+].[Na+].[Na+] [Example 89, trisodium salt of (S)-aspartic acid-N-monoacetic acid] | Colorless transparent aqueous solution | 49.4
36 | O=C([O-])C[C@@H](C(=O)[O-])N(CC(=O)[O-])CC(=O)[O-].[Na+].[Na+].[Na+].[Na+] [Example 90, tetrasodium salt of (S)-aspartic acid-N,N-diacetic acid] | Colorless transparent aqueous solution | 49.5
37 | O=C([O-])CCN[C@@H](CC(=O)[O-])C(=O)[O-].[Na+].[Na+].[Na+] [Example 91, trisodium salt of (S)-aspartic acid-N-monopropionic acid] | Colorless transparent aqueous solution | 49.8
